These are literature values, as cited in patent publication US20140170075A1, “NON-INVASIVE IMAGING METHODS FOR PATIENT SELECTION FOR TREATMENT WITH NANOPARTICULATE THERAPEUTIC AGENTS” (Merrirnack Pharmaceuticals, Inc., priority 2012, published 2014).

Structures are written as SMILES.

In the data set the test system is cancer cell proliferation. Particulars: more active than irinotecan.

On to `CCc1c2c(nc3ccc(O)cc13)-c1cc3c(c(=O)n1C2)COC(=O)[C@]3(O)CC` [SN-38], for which the “activity as an inhibitor of cancer cell proliferation relative to irinotecan” value is 100-1000 ×.
